Experimental data reported in patent US20040006061A1, “Alkoxybenzylamine” (priority 2001, published 2004).

What follows are compounds tested on Staphylococcus hominis DSM 20328 (assay: Determination of the Minimum Inhibitory Concentration (MIC value) in microtitre plates, Staphylococcus hominis). Conditions: Staphylococcus hominis DSM 20328; CASO broth, 48 hours at 37° C.; MIC = ≦20% growth (optical density at 620 nm); listed as (82).
Format: cell-based
Experimental: (§1) Determination of the Minimum Inhibitory Concentration (MIC Value) in Microtitre Plates
Casein-soybean flour-peptone broth for preparation of pre-cultures of test bacteria and yeast.
Staphylococcus hominis DSM 20328 […]
(§2) The test substances are pre-dissolved in dimethyl sulfoxide (DMSO) and tested in a dilution series of 1:2.
(§3) The bacteria are cultured overnight in CASO broth and washed off using 10 ml of 0.85% sodium chloride solution (+0.1% Triton X-100).
(§4) All the test organisms are adjusted to an organism count of 1-5×10^6 CFU/ml using 0.85% sodium chloride solution.
(§5) The test substances are pre-pipetted into microtitre plates in amounts of 8 μl per well.
(§6) Pre-diluted test organism suspensions are diluted 1:100 in CASO broth.
(§7) The test batches are incubated for 48 hours at 37° C.
(§8) After incubation, the growth is determined on the basis of the turbidity of the test batches (optical density) at 620 nm in a microplate reader.
(§9) The minimum inhibitory concentration (MIC value) is the concentration of substance at which there is found (compared to the growth of the control) an appreciable inhibition of growth (≦20% growth) of the test organisms.
(§10) One microtitre plate is used for each test organism and substance concentration.
(§11) All the substances are tested in duplicate.
With `CCCCCCCCCCCCOc1ccc(CN2CCCC2)cc1` [Compound of formula (82)] the “MIC [μg/ml] SH” value was 7.5 µg/mL.

Same assay, conditions: Staphylococcus hominis, DSM20328, 48 h, Staphylococcus hominis DSM 20328; CASO broth, 48 hours at 37° C.; MIC = ≦20% growth (optical density at 620 nm); read-out: MIC [μg/ml] SH
Work on `CCCCCCCCCCCCOc1ccc(CN2CCCCC2)cc1` [Compound of formula (86)] yielded an MIC of 7.5 µg/mL. `CCCCCCCCCCCCOc1ccc(CN2CCCC2)cc1OC` [Compound of formula (18)] was tested, and the MIC was 3.75 µg/mL. In the case of `CCCCCCCCCCCCOc1ccc(CN(C)CC)cc1` [Compound of formula (77)], the MIC is reported as 15 µg/mL. For `CCCOc1ccc(CN(C)C)cc1OC` [Compound of formula (68)], the MIC was > 120 µg/mL. For `CCCCCCCCOc1ccc(CN(C)C)cc1OC` [Compound of formula (52)], the MIC was 120 µg/mL. In the case of `CCCCCCCCOc1ccc(CN(CC)CC)cc1OC` [Compound of formula (45)], the MIC is reported as 120 µg/mL. Compound `CCCCCCCCCCCCOc1ccc(CN(C)CCCC)cc1OC` [Compound of formula (9)] has an MIC of 15 µg/mL. Work on `CCCCCCCCCCCCOc1ccc(CN2CCN(C)CC2)cc1OC` [Compound of formula (12)] yielded an MIC of 3.75 µg/mL. Work on `CCCCCCCCCCCCOc1ccc(CN(C)CCCC)cc1` [Compound of formula (73)] yielded an MIC of 120 µg/mL. For `CCCCCCCCOc1ccc(CN2CCN(C(C)=O)CC2)cc1OC` [Compound of formula (46)], the MIC was > 120 µg/mL. In the case of `CCCCCCCCCCCCOc1ccc(CN2CCCCCC2)cc1` [Compound of formula (74)], the MIC is reported as 3.75 µg/mL. In the case of `CCCOc1ccc(CN2CCN(C(C)=O)CC2)cc1OC` [Compound of formula (62)], the MIC is reported as > 120 µg/mL. Work on `CCCCCCCCOc1ccc(CN(C)CCCCCC)cc1OC` [Compound of formula (48)] yielded an MIC of 120 µg/mL. With `CCCCCCOc1ccc(CN2CCCCCC2)cc1OC` [Compound of formula (26)] the MIC was > 120 µg/mL. `CCCCCCCCCCCCN(C)Cc1ccc(OCCCCCC)c(OC)c1` [Compound of formula (35)] showed an MIC of 15 µg/mL. With `CCCCCCCCCCCCN(C)Cc1ccc(OCCCCCCCC)c(OC)c1` [Compound of formula (51)] the MIC was > 120 µg/mL. For `CCCCCCOc1ccc(CN2CCN(C(C)=O)CC2)cc1OC` [Compound of formula (30)], the MIC was > 120 µg/mL. `CCCOc1ccc(CN2CCCC2)cc1OC` [Compound of formula (66)] was tested, and the MIC was > 120 µg/mL. For `CCCCCCOc1ccc(CN2CCCC2)cc1OC` [Compound of formula (6)], the MIC was > 120 µg/mL. For `CCCCCCOc1ccc(CN(C)Cc2ccccc2)cc1OCCCCCC` [Compound of formula (95)], the MIC was > 120 µg/mL. For `CCCCCCCCCCCCOc1ccc(CN2CCNCC2)cc1OC` [Compound of formula (21)], the MIC was > 120 µg/mL. For `CCCCCCCCCCCCOc1ccc(CN(C)CCCCCC)cc1OC` [Compound of formula (16)], the MIC was 120 µg/mL. With `CCCCCCOc1ccc(CN(C)CCCC)cc1OC` [Compound of formula (25)] the MIC was > 120 µg/mL. `CCCCCCOc1ccc(CN(C(C)C)C(C)C)cc1OC` [Compound of formula (27)] was tested, and the MIC was > 120 µg/mL. `CCCCCCCCCCCCOc1ccc(CN(CC)CC)cc1OC` [Compound of formula (13)] showed an MIC of 3.75 µg/mL.

Same assay, conditions: Staphylococcus hominis, DSM20328, 48 h, read-out: MIC [μg/ml] SH
With `CCCCCCOc1ccc(CN2CCN(C)CC2)cc1OC` [Compound of formula (28)] the MIC was > 120 µg/mL. For `CCCOc1ccc(CN2CCNCC2)cc1OC` [Compound of formula (69)], the MIC was > 120 µg/mL.

The compounds below were run on Escherichia coli NCTC 8196 (assay: Determination of the Minimum Inhibitory Concentration (MIC value) in microtitre plates, Escherichia coli). Conditions: Escherichia coli NCTC 8196; CASO broth, 48 hours at 37° C.; MIC = ≦20% growth (optical density at 620 nm).
Format: cell-based
Experimental: as §1
Casein-soybean flour-peptone broth for preparation of pre-cultures of test bacteria and yeast. […]
Escherichia coli NCTC 8196
as §2, §3, §4, §5, §6, §7, §8, §9, §10, §11
For `CCCCCCCCCCCCOc1ccc(CN2CCCC2)cc1OC` [Compound of formula (4)], the “MIC [μg/ml] EC” value was 30 µg/mL.

Same assay, conditions: Escherichia coli, NCTC8196, 48 h, Escherichia coli NCTC 8196; CASO broth, 48 hours at 37° C.; MIC = ≦20% growth (optical density at 620 nm); read-out: MIC [μg/ml] EC
For `CCCCCCCCCCCCOc1ccc(CN2CCCCC2)cc1` [Compound of formula (86)], the MIC was > 120 µg/mL. Compound `CCCCCCCCCCCCOc1ccc(CN2CCCC2)cc1OC` [Compound of formula (18)] has an MIC of 15 µg/mL. `CCCCCCCCCCCCOc1ccc(CN(C)CC)cc1` [Compound of formula (77)] was tested, and the MIC was > 120 µg/mL. For `CCCOc1ccc(CN(C)C)cc1OC` [Compound of formula (68)], the MIC was > 120 µg/mL. With `CCCCCCCCOc1ccc(CN(C)C)cc1OC` [Compound of formula (52)] the MIC was 120 µg/mL. In the case of `CCCCCCCCOc1ccc(CN(CC)CC)cc1OC` [Compound of formula (45)], the MIC is reported as 120 µg/mL. `CCCCCCCCCCCCOc1ccc(CN(C)CCCC)cc1OC` [Compound of formula (9)] was tested, and the MIC was > 120 µg/mL. `CCCCCCCCCCCCOc1ccc(CN2CCN(C)CC2)cc1OC` [Compound of formula (12)] gave an MIC of 120 µg/mL. With `CCCCCCCCCCCCOc1ccc(CN(C)CCCC)cc1` [Compound of formula (73)] the MIC was > 120 µg/mL. In the case of `CCCCCCCCOc1ccc(CN2CCN(C(C)=O)CC2)cc1OC` [Compound of formula (46)], the MIC is reported as 120 µg/mL. With `CCCCCCCCCCCCOc1ccc(CN2CCCCCC2)cc1` [Compound of formula (74)] the MIC was > 120 µg/mL. `CCCOc1ccc(CN2CCN(C(C)=O)CC2)cc1OC` [Compound of formula (62)] was tested, and the MIC was > 120 µg/mL. Work on `CCCCCCCCCCCCOc1ccc(CN2CCCC2)cc1` [Compound of formula (82)] yielded an MIC of 60 µg/mL. For `CCCCCCCCOc1ccc(CN(C)CCCCCC)cc1OC` [Compound of formula (48)], the MIC was > 120 µg/mL. In the case of `CCCCCCOc1ccc(CN2CCCCCC2)cc1OC` [Compound of formula (26)], the MIC is reported as > 120 µg/mL. With `CCCCCCCCCCCCN(C)Cc1ccc(OCCCCCC)c(OC)c1` [Compound of formula (35)] the MIC was > 120 µg/mL. With `CCCCCCCCCCCCN(C)Cc1ccc(OCCCCCCCC)c(OC)c1` [Compound of formula (51)] the MIC was > 120 µg/mL. With `CCCCCCOc1ccc(CN2CCN(C(C)=O)CC2)cc1OC` [Compound of formula (30)] the MIC was > 120 µg/mL. With `CCCOc1ccc(CN2CCCC2)cc1OC` [Compound of formula (66)] the MIC was > 120 µg/mL. `CCCCCCOc1ccc(CN2CCCC2)cc1OC` [Compound of formula (6)] was tested, and the MIC was > 120 µg/mL. `CCCCCCOc1ccc(CN(C)Cc2ccccc2)cc1OCCCCCC` [Compound of formula (95)] was tested, and the MIC was > 120 µg/mL. In the case of `CCCCCCCCCCCCOc1ccc(CN2CCNCC2)cc1OC` [Compound of formula (21)], the MIC is reported as > 120 µg/mL. In the case of `CCCCCCCCCCCCOc1ccc(CN(C)CCCCCC)cc1OC` [Compound of formula (16)], the MIC is reported as > 120 µg/mL. In the case of `CCCCCCOc1ccc(CN(C)CCCC)cc1OC` [Compound of formula (25)], the MIC is reported as > 120 µg/mL. `CCCCCCOc1ccc(CN(C(C)C)C(C)C)cc1OC` [Compound of formula (27)] was tested, and the MIC was > 120 µg/mL. With `CCCCCCCCCCCCOc1ccc(CN(CC)CC)cc1OC` [Compound of formula (13)] the MIC was > 120 µg/mL.

Same assay, conditions: Escherichia coli, NCTC8196, 48 h, read-out: MIC [μg/ml] EC
For `CCCCCCOc1ccc(CN2CCN(C)CC2)cc1OC` [Compound of formula (28)], the MIC was > 120 µg/mL. For `CCCOc1ccc(CN2CCNCC2)cc1OC` [Compound of formula (69)], the MIC was > 120 µg/mL.
